Experimental data published in publication PMC10041525, “New Dual Inhibitors of Bacterial Topoisomerases with Broad-Spectrum Antibacterial Activity and In Vivo Efficacy against Vancomycin-Intermediate Staphylococcus aureus” (Journal of Medicinal Chemistry, 2023).
Read-outs that look alike come from different tables or passages of the source.

Columns and labels:
[1] = tested on: S. aureus (MRSA) ATCC 43300; experiment: MIC broth microdilution (CLSI); format: cell-based; settings: Staphylococcus aureus
Procedure, shortened: (§1)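 Using standard CLSI methodology, triplicate wells seeded at 5 × 10^4 cells in 100 μL cation-adjusted MHBII are incubated 18 h at 37 °C. The MIC corresponds to the drug concentration inhibiting culture growth as judged by OD600.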

[2] = tested on: S. aureus (VISA) ATCC 700699; experiment: MIC broth microdilution (CLSI); format: cell-based; settings: Staphylococcus aureus; read-out: MIC
Procedure, shortened: as §1

E. faecium ATCC 700221 = experiment: MIC broth microdilution (CLSI); format: cell-based; settings: Enterococcus faecium, ATCC700221; read-out: MIC
K. pneumoniae ATCC 10031 = experiment: MIC broth microdilution (CLSI); format: cell-based; settings: Klebsiella pneumoniae, ATCC10031; read-out: MIC
Procedure, shortened: as §1

[3] = tested on: Enterobacter cloacae spp. cloacae ATCC 13047; experiment: MIC broth microdilution (CLSI); format: cell-based; settings: Enterobacter cloacae, ATCC13047; read-out: MIC
Procedure, shortened: as §1

P. aeruginosa ATCC 27853 = experiment: MIC broth microdilution (CLSI); format: cell-based; settings: Pseudomonas aeruginosa, ATCC27853; read-out: MIC
Procedure, shortened: as §1

E. coli ATCC 25922 = experiment: MIC broth microdilution (CLSI); format: cell-based; settings: Escherichia coli, ATCC25922; read-out: MIC
Procedure, shortened: as §1

topo IV from E. coli = molecular target: T1, topo IV from E. coli (Escherichia coli, UniProt P20083); experiment: relaxation HTS plate assay; format: biochemical; settings: read-out: IC50
T1 construct: purchased Inspiralis
Procedure, shortened: (§2)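 E. coli gyrase tested by supercoiling and topo IV by relaxation in high-throughput plate format. IC50 from seven inhibitor concentrations; mean of three independent measurements.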

A. baumannii ATCC 17978 = experiment: MIC broth microdilution (CLSI); format: cell-based; settings: Acinetobacter baumannii, ATCC17978
Procedure, shortened: (§3)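 Cation-adjusted Mueller Hinton broth 2 microdilution, 5 × 10^4 cells per well in 100 μL, three parallel replicates, plates bagged to limit evaporation; growth read as OD600 after incubation.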

S. aureus ATCC 29213 = experiment: MIC broth microdilution (CLSI); format: cell-based; settings: Staphylococcus aureus, ATCC29213
Procedure, shortened: as §3

DNA gyrase from E. coli = molecular target: T2, DNA gyrase from E. coli (Escherichia coli, UniProt P0AES6); experiment: supercoiling HTS plate assay; format: biochemical
T2 construct: purchased Inspiralis
Procedure, shortened: as §2

T1 sequence (P0AFI2 whole entry): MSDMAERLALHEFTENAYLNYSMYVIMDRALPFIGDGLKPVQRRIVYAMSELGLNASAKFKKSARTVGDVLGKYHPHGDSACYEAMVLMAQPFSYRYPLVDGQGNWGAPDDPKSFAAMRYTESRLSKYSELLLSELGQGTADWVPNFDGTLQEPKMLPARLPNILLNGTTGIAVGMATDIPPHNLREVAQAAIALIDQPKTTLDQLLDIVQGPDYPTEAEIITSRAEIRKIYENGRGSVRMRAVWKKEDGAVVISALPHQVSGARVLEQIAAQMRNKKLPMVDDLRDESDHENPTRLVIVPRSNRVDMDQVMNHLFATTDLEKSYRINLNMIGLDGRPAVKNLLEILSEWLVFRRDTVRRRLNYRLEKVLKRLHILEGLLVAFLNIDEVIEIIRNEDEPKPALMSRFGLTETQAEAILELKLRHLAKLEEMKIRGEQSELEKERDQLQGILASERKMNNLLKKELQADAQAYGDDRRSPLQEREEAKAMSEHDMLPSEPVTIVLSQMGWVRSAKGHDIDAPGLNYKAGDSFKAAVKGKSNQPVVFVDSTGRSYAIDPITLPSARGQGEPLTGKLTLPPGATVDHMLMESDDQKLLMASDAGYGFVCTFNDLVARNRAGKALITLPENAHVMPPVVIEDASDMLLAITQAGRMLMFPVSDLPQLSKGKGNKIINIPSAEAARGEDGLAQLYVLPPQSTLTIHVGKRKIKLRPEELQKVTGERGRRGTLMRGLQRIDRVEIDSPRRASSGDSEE
T1 sequence (P20083 whole entry): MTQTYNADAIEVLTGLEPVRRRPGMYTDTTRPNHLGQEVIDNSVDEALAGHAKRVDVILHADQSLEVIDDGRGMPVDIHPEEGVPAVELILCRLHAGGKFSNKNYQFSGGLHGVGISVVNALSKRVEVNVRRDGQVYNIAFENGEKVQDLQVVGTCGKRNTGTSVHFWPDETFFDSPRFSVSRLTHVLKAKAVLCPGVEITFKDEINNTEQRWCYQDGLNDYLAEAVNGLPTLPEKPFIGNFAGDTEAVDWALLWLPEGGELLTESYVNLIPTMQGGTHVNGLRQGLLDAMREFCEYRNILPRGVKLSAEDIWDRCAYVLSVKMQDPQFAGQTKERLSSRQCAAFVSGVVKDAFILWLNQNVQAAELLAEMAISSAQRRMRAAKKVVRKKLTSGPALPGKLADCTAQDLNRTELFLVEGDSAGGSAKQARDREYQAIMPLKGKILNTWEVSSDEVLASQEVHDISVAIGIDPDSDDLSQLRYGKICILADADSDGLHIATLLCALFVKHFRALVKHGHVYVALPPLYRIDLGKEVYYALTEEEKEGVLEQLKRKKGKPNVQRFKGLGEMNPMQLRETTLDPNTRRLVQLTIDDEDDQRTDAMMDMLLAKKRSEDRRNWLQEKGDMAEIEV

Work on `Cc1[nH]c(C(=O)Nc2nc3c(N4CCOC[C@@H]4C)cc(C(=O)O)cc3s2)c(Cl)c1Cl` [7d, (S)-2-(3,4-Dichloro-5-methyl-1H-pyrrole-2-carboxamido)-4-(3-methylmorpholino)benzo[d]thiazole-6-carboxylic Acid] yielded an MIC ([1]; read-out: MIC) of 0.125 µg/mL, an MIC ([1]; read-out: MIC [µg/mL](S. aureus MRSA ATCC4330)) of 0.125 µg/mL and an MIC [2] of 0.0625 µg/mL. The MIC (E. faecium ATCC 700221) was < 0.0312 µg/mL, the MIC (K. pneumoniae ATCC 10031) was 2 µg/mL and the MIC [3] was > 64 µg/mL. For the same molecule, the MIC (P. aeruginosa ATCC 27853) was 8 µg/mL, the MIC (E. coli ATCC 25922) was 8 µg/mL and the IC50 (topo IV from E. coli) was 95 ± 4 nM. It also gave an MIC (A. baumannii ATCC 17978; read-out: MIC) of 8 µg/mL, an MIC (A. baumannii ATCC 17978; read-out: MIC [µg/mL] (A. baumannii ATCC 17978)) of 8 µg/mL and an MIC (S. aureus ATCC 29213; read-out: MIC) of 0.125 µg/mL. It also gave an MIC (S. aureus ATCC 29213; read-out: MIC [µg/mL](S. aureus ATCC 29213)) of 0.125 µg/mL, an IC50 (DNA gyrase from E. coli; IC50) of 18 ± 7 nM and an IC50 (DNA gyrase from E. coli; IC50 [nM] E. coli DNA gyrase) of 23 nM.
